Experimental data: the supplement of paper PMC10307832

What was measured:
Test in all cases: relative viability (nuclei count vs DMSO), 5 days (fraction); higher = more cells survive
Sulindac + Crizotinib = compound: CC1=C(CC(=O)O)c2cc(F)ccc2/C1=C\c1ccc([S+](C)[O-])cc1 [Sulindac] + C[C@@H](Oc1cc(-c2cnn(C3CCNCC3)c2)cnc1N)c1c(Cl)ccc(F)c1Cl [Crizotinib] (partner 1 µM)
Procedure, shortened: (§1)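 Lung cancer cell lines were pin-tool dosed in 1536-well plates on the day after seeding, with either a lone drug or a fixed anchor-drug dose plus five library-drug doses (not always all listed) in √10 steps. Nuclei were counted on 4× images after 5 days. Relative viability is the ratio of treated-well to vehicle-well nuclei counts, with each value a median of duplicate plates.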

[1] = compound: CN[C@@H]1C[C@H]2O[C@@](C)([C@@H]1OC)n1c3ccccc3c3c4c(c5c6ccccc6n2c5c31)C(=O)NC4 [Staurosporine] + CS(=O)(=O)CCNCc1ccc(-c2ccc3ncnc(Nc4ccc(OCc5cccc(F)c5)c(Cl)c4)c3c2)o1 [Lapatinib] (partner 2 µM)
Procedure, shortened: as §1

[2] = compound: O=c1[nH]cc(F)c(=O)[nH]1 [5-Fluorouracil] + C[C@]1(O)C[C@@H](c2nc(-c3ccc4ccc(-c5ccccc5)nc4c3)c3c(N)nccn32)C1 [Linsitinib] (partner 1 µM)
Procedure, shortened: as §1

[3] = compound: O=c1[nH]cc(F)c(=O)[nH]1 [5-Fluorouracil] + Cc1cc(Nc2cc(N3CCN(C)CC3)nc(Sc3ccc(NC(=O)C4CC4)cc3)n2)n[nH]1 [Tozasertib] (partner 0.1 µM)
Procedure, shortened: as §1

Cell Line	relative viability (Sulindac + Crizotinib; first compound 0.08 µM)	relative viability (Sulindac + Crizotinib; first compound 0.253 µM)	relative viability (Sulindac + Crizotinib; first compound 0.8 µM)	relative viability (Sulindac + Crizotinib; first compound 2.53 µM)	relative viability (Sulindac + Crizotinib; first compound 8 µM)	relative viability ([1]; first compound 0.005 µM)	relative viability ([1]; first compound 0.01581 µM)	relative viability ([1]; first compound 0.05 µM)	relative viability ([1]; first compound 0.1581 µM)	relative viability ([1]; first compound 0.5 µM)	relative viability ([2]; first compound 0.02 µM)	relative viability ([2]; first compound 0.2 µM)	relative viability ([2]; first compound 0.6325 µM)	relative viability ([2]; first compound 2 µM)	relative viability ([3]; first compound 0.02 µM)	relative viability ([3]; first compound 0.2 µM)	relative viability ([3]; first compound 0.6325 µM)	relative viability ([3]; first compound 2 µM)
201T	0.954	1.03	1.08	1.01	1.13	1.04	0.957	0.948	0.895	0.637	0.991	0.955	0.452	0.342	0.916	0.477	0.369	0.313
A549	1.13	0.783	0.651	0.892	0.924	0.823	0.715	0.499	0.0558	0.0481	0.633	0.652	0.301	0.119				
A-427	0.892	0.888	0.881	0.894	0.896	0.967	0.245	0.56	0.303	0.175	1.05	1.08	1.11	0.546	0.181		0.189	0.159
ABC-1	1.44	1.03	0.809	1.19	1.6	0.953	0.799	0.608	0.339	0.502	0.739	0.987	0.714	0.748	0.163	0.184	0.171	0.195
BEN	0.994	0.903	0.648	0.984	1.13	0.656	0.449	0.381	0.198	0.207	0.813	0.754	0.641	0.646	0.43	0.479	0.491	0.535
CAL-12T	0.689	0.661	0.563	0.629	0.797	0.356	0.198	0.214	0.192	0.194	0.487	0.87	0.673	0.412	0.337	0.385	0.316	0.221
COR-L23	0.711	0.783		0.613	0.82	0.695	0.31	0.241	0.0931	0.0662	0.846	0.945	0.43	0.234				
COR-L 105	0.957	0.901	0.759	0.776	0.911	0.354	0.247	0.247	0.243	0.218	0.976	0.862	0.937	0.575	0.303	0.328	0.323	0.26
Calu-6	0.951	0.883	0.637	0.853	0.969	0.87	0.51	0.277	0.136	0.085	0.975	1.01	0.82	0.61				
ChaGo-K-1	1.34	1.17	0.769	1.28	1.31													
EBC-1	0.188	0.196		0.178	0.201	0.187	0.177	0.189	0.122	0.127	0.859	0.928	0.814	0.605				
EKVX	1.17	0.871	0.692	0.907	0.947	0.152	0.135	0.162	0.156	0.1	0.891	0.282	0.153	0.142	0.35	0.172	0.147	0.131
EMC-BAC-2	0.788	0.778	0.585	0.779	0.91	0.427	0.498	0.178	0.188	0.167	0.865	0.873	0.846	0.8	0.293	0.292	0.33	0.287
EPLC-272H	0.932		0.948	0.551	0.977	0.787	0.194	0.513	0.175	0.149	1.1	0.9		0.305	0.292	0.223	0.259	0.222
H3255	0.829	1.04	0.891	0.917	1.05	0.138	0.0852	0.124	0.142	0.137	0.99	1.07	0.853	0.579	0.63	0.663	0.652	0.497
HARA	1.1	1.29		1.21	1.07	0.485	0.327	0.308	0.118	0.0844	0.963	1.02	0.885	0.891	0.165	0.122	0.129	0.103
HCC-15	0.952	0.934	0.647	0.834	0.883	0.892		0.595	0.365	0.151	0.894	0.827	0.584	0.308	0.396	0.455	0.43	0.232
HCC-44	0.892	0.88	0.768	0.9	0.861	0.956		0.208	0.0947	0.0895	0.613	0.57	0.451	0.272	1.19	0.844	0.739	0.291
HCC-78	0.305	0.326	0.327	0.296	0.401	0.238	0.22	0.38	0.263	0.232	0.398	0.528	0.258		1.46	0.395	0.37	0.264
HCC-366	0.378	0.599	0.446	0.497	0.729	1.22		0.278	0.0407	0.0187	0.673	0.82	0.254	0.0796	0.193	0.0738	0.0902	0.0478
HCC-827	0.927	0.98	0.942	0.914	0.956	0.223	0.186	0.182	0.125	0.163	0.909	0.95	0.57	0.405		0.433	0.391	0.29
HOP-62	1.06	1.25	1.06	0.843	0.987	1.27	0.293	0.103	0.0855	0.0849	1.11	1.03	0.86	0.765	0.368	0.364	0.389	0.319

Cell Line	relative viability (Sulindac + Crizotinib; first compound 0.08 µM)	relative viability (Sulindac + Crizotinib; first compound 0.253 µM)	relative viability (Sulindac + Crizotinib; first compound 0.8 µM)	relative viability (Sulindac + Crizotinib; first compound 2.53 µM)	relative viability (Sulindac + Crizotinib; first compound 8 µM)	relative viability ([1]; first compound 0.005 µM)	relative viability ([1]; first compound 0.01581 µM)	relative viability ([1]; first compound 0.05 µM)	relative viability ([1]; first compound 0.1581 µM)	relative viability ([1]; first compound 0.5 µM)	relative viability ([2]; first compound 0.02 µM)	relative viability ([2]; first compound 0.2 µM)	relative viability ([2]; first compound 0.6325 µM)	relative viability ([2]; first compound 2 µM)	relative viability ([3]; first compound 0.02 µM)	relative viability ([3]; first compound 0.2 µM)	relative viability ([3]; first compound 0.6325 µM)	relative viability ([3]; first compound 2 µM)
IA-LM	0.565	0.804	0.594	0.677	1.12	0.194	0.194	0.158	0.208	0.074	0.597	0.485	0.175	0.213				
LC-2-ad	0.423	0.516	0.404	0.46	0.466	0.957	0.127	0.47	0.0776	0.0569	0.868	0.798	0.463	0.299	0.443	0.382	0.365	0.293
LCLC-97TM1	0.435	0.373	0.319		0.418	0.864	0.168	0.285	0.174	0.381	0.175	0.193	0.153	0.144	0.223	0.271	0.181	0.199
LCLC-103H	1.09	1.11	0.952	1.11	1.09						1.16	1.04	0.955	0.645	0.536	0.511	0.305	0.212
LK-2	0.185	0.243			0.216	1.31	0.924		0.346	0.178	0.767	0.5	0.584	0.334	0.169	0.176	0.16	0.189
LOU-NH91	0.978	0.768	0.697	0.688	0.75	0.861	0.582	0.539	0.275	0.292	0.921	0.889	0.646	0.415	0.701	0.705	0.564	0.243
LU99A	0.636	0.515	0.543	0.474	0.57	0.669	0.313	0.282	0.171	0.133	0.549	0.607	0.426	0.422	0.325	0.243	0.269	0.207
LXF-289	0.844	0.868	0.776	0.85	0.855	0.725		0.389	0.109	0.0903	1	0.67	0.389	0.308	0.189	0.164	0.134	0.138
NCI-H441	0.709	0.719	0.626	0.651	0.946						0.51	0.519	0.397	0.301	0.701	0.468	0.372	0.343
NCI-H522															0.515	0.556	0.586	0.48
NCI-H1299	1.06	0.975	0.866	0.971	1.01	0.985	0.414	0.326	0.201	0.171	1.09	0.982	0.825	0.59				
NCI-H1395						0.833	0.551	0.487	0.356	0.376	0.884	1.19	1.03	1.25	0.652	0.837	0.737	0.8
NCI-H1563	0.84	0.92	0.806	0.785	0.888	0.71	0.541	0.594	0.539	0.472	1.08	1.25	1.12	0.994				
NCI-H1623															0.38	0.314	0.264	0.248
NCI-H1648															0.442	0.457	0.372	0.207
NCI-H1650	1.17	0.878	0.912	0.979	1.02	0.575	0.165	0.336	0.151	0.117					0.408	0.401	0.317	0.211
NCI-H1703	0.561	0.649	0.824	0.678	0.805	0.45	0.313	0.245	0.172	0.151	0.665	1.16	0.856	0.484				
NCI-H1792	1	1		0.944	1.16	0.992	0.814	0.503	0.199	0.185	0.554	0.484	0.14	0.0794				
NCI-H1793						0.829	0.281	0.527	0.216	0.18	0.691	0.92	0.815	0.496	0.318	0.349	0.398	0.251
NCI-H2170	1.21	1.21	0.771	1.2	1.23	0.289	0.236	0.258	0.197	0.193					0.796	0.671	0.436	0.32
NCI-H2342															0.484	0.471	0.626	0.443
SW 900															0.595	0.644	0.602	0.421
